We go through eight molecules from PubChem BioAssay (NCI).

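All cell lines were grown in 96-well plates and treated with compound for 48 hours. GI50 = concentration required for 50% inhibition of growth. TGI: total growth inhibition.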

Common to all, as to assay: NCI-60 cell line screen, 48 h
For experiment [1], the system named is HCT-15 colon.
Experiment [2] deals with KM12 colon.
Experiment [3] relates to MDA-MB-435.
Experiment [4] relates to MOLT-4 leukemia.
In experiment [5] the test system is LOX IMVI melanoma.
The subject of experiment [6] is SNB-75 CNS.
Experiment [7] deals with SF-268 CNS.
For experiment [8], the system named is MCF7 breast.
Experiment [9] has as its system A498 renal.
The test system of experiment [10] is 786-0 renal.

On to `C[C@]12CC[C@@H](OC(=O)N(CCCl)N=O)C[C@@H]1CC[C@@H]1[C@@H]2CC[C@]2(C)C(=O)CC[C@@H]12`, for which the GI50 is 12.1 µM in [1]; 2.81 µM in [2]; 10.6 µM in experiment [3]; 5.6 µM in experiment [5]; 2.74 µM in experiment [6]; 0.632 µM in [7]. Besides, the GI50 in [8] is 1.38 µM; in experiment [9], 1.68 µM; in [10] it was 0.891 µM. The TGI in [1] is 32.4 µM; in experiment [2], 16.3 µM; in [3], 44.1 µM; in experiment [4] it was more than 57.7 µM; in experiment [5], 22.1 µM; in experiment [6] it was 30.5 µM. Also, the TGI in [7] was found to be 18.9 µM; in experiment [8] it was 19.2 µM; in experiment [9], 4.29 µM; in [10], 16.7 µM.
As to `O=C(Nc1ccc(Br)cc1)Nc1nn(C(=O)Nc2ccc(Br)cc2)c2ccccc12`, the GI50 is more than 74.2 µM in [1]; more than 88.8 µM in experiment [2]; more than 100 µM in experiment [3]; 2.49 µM in [4]; 64.4 µM in [5]; 8.26 µM in experiment [6]. The GI50 in [7] was 17.6 µM; in experiment [8], 29.1 µM; in experiment [9], 31.4 µM; in experiment [10], 34.3 µM. The TGI was more than 100 µM in [1]; more than 100 µM in experiment [2]; more than 100 µM in [3]; more than 100 µM in experiment [5]; 28.7 µM in [6]; more than 63.9 µM in experiment [7]. Besides, the TGI in experiment [8] was more than 100 µM; in experiment [9], more than 81 µM; in experiment [10] it was more than 100 µM.
Consider `CNCCNc1nc2ccccc2c2c(=O)c3cc(OC)ccc3sc12`, for which the GI50 is 1.39 µM in experiment [1]; 1.8 µM in experiment [2]; 1.72 µM in [3]; 1.77 µM in [4]; 1.51 µM in experiment [5]; 1.28 µM in [6]. Moreover, the GI50 in experiment [7] is 1.64 µM; in [8] it was 1.54 µM; in experiment [9], 2.12 µM; in experiment [10], 1.7 µM. In addition, the TGI is 2.83 µM in [1]; 3.48 µM in [2]; 3.13 µM in experiment [3]; 3.53 µM in experiment [4]; 2.88 µM in experiment [5]; 2.58 µM in [6]. The TGI in [7] was determined as 3.39 µM; in experiment [8] it was 3.1 µM; in experiment [9], 6.8 µM; in experiment [10], 3.18 µM.
Regarding `CC12CC=CCC1CCC1C2CCC2(C)C(c3ccc(=O)oc3)CCC12O` (stereo not drawn), the GI50 in experiment [1] is 0.105 µM; in experiment [2], 0.315 µM; in experiment [3] it was 0.179 µM; in experiment [4] it was 0.0292 µM; in experiment [5], 0.0562 µM; in experiment [6], 0.0604 µM. The GI50 was 0.0475 µM in [7], 0.0794 µM in [8], 0.0768 µM in [9] and 0.0387 µM in [10]. For the same molecule, the TGI in experiment [1] came to 0.458 µM; in experiment [2], 1.55 µM; in [3], 0.727 µM; in experiment [4] it was 0.113 µM; in [5] it was 0.213 µM; in experiment [6], 0.302 µM. Also, the TGI was 0.268 µM in experiment [7], 0.961 µM in experiment [8], 0.54 µM in [9] and 0.209 µM in [10].
Consider `COc1ccc(NC(=O)n2nc(/C=C\c3ccc(O)c(OC)c3)cc2/C=C\c2ccc(O)c(OC)c2)cc1`, for which the GI50 is 2.98 µM in experiment [1]; 3.19 µM in experiment [2]; 1.25 µM in experiment [3]; 2.87 µM in experiment [4]; 3.95 µM in [5]; 2.35 µM in experiment [6]. Further, the GI50 in experiment [7] is 3.21 µM; in experiment [8], 3.03 µM; in experiment [9], 17.2 µM; in experiment [10], 4 µM. For the same molecule, the TGI was more than 100 µM in experiment [1]; 20.7 µM in experiment [2]; 4.68 µM in experiment [3]; 13.3 µM in [4]; more than 100 µM in [5]; 16.3 µM in experiment [6]. Further, the TGI was found to be 36.4 µM in experiment [7], 17 µM in [8], 56.4 µM in experiment [9] and 24.3 µM in [10].
In the case of `Cc1nn(CNc2ccccc2C(F)(F)F)c(=S)n1/N=C/c1ccc(F)cc1`, the GI50 in experiment [1] was 53.7 µM; in experiment [2] it was more than 100 µM; in experiment [3], more than 100 µM; in [4], 46.6 µM; in experiment [5], more than 100 µM; in experiment [6], 29.5 µM. For the same molecule, the GI50 is more than 100 µM in experiment [7], 60.3 µM in experiment [8], more than 100 µM in [9] and more than 100 µM in [10]. For the same molecule, the TGI in experiment [1] was more than 100 µM; in experiment [2], more than 100 µM; in experiment [3], more than 100 µM; in experiment [4], more than 100 µM; in [5] it was more than 100 µM; in [6], 91.3 µM. The TGI in experiment [7], in experiment [8], in experiment [9] and in experiment [10] was more than 100 µM in each case.
As to `[N-]=[N+]=CC(=O)COC(=O)c1ccccc1`, the TGI in experiment [1], in [2], in experiment [3], in [4], in experiment [5] and in experiment [6] was more than 100 µM in each case. For the same molecule, the TGI in experiment [7], in experiment [8], in experiment [9] and in [10] was more than 100 µM throughout.
In the case of `Nc1nc(N)nc(CC(=O)O)n1`, the TGI in experiment [1], in experiment [2], in experiment [3], in [4], in experiment [5] and in experiment [6] was more than 100 µM each time. Further, the TGI in experiment [7], in [8], in [9] and in [10] was more than 100 µM throughout.
